For one molecule, solubility results are on record in patent publication US20240228443A1, “NOVEL MANUFACTURING METHOD OF D[…] PRECURSORS THEREOF” (GlaxoSmithKline Intellectual Property (No.2) Limited, priority 2021, published 2024).

In brackets after ≈: the same amount, converted by molar mass.

This data set in a line: Solubility by saturation of the solvent, filtration and determination of concentration in the supernatant. The data set is classed as physicochemical. The settings on record: thermodynamic from solid. Here is the method: The solubility of 5-acetyl-1,3-dicyclohexylpyrimidine-2,4,6(1H,3H,5H)-trione was measured in 29.5% v/v acetic anhydride-acetic acid (a mimic for the solvent composition at the end of Stage 1), acetic acid and water. The solubility was measured by saturation of the solvent with the component, filtration and determination of the component concentration in the supernatant.

Usually solubility stands for the dissolved amount per volume that the medium holds. With `CC(=O)C1C(=O)N(C2CCCCC2)C(=O)N(C2CCCCC2)C1=O` [5-acetyl-1,3-dicyclohexylpyrimidine-2,4,6(1H,3H,5H)-trione], the solubility is 43.7 mg/mL (≈ 131 mM) (organic solvent or mixture, in 29.5% v/v acetic anhydride-acetic acid at 15° C.); 62.3 mg/mL (≈ 186 mM) (organic solvent or mixture, in acetic acid at 20° C.); under 0.1 mg/mL (in water at 25° C.).
